Data published in patent US11421006B2, “T cell epitopes from Cockroach and methods of making and using same” (LA JOLLA INSTITUTE FOR ALLERGY AND IMMUNOLOGY, priority 2012, dated 2022).
“And” between values parts separate entries of the source, which are not always exact repeats. Equal values may be shown once.

Tested on: Bla g-specific T cells (PBMC)
Assay: ELISPOT assays: IL-5, IFN-γ and IL-10 production by in vitro expanded PBMC of Cockroach-allergic donors
Assay type: cell-based, human
Conditions: for IFNγ / IL-5: individual peptide, one line per responding donor; for Total SFCs: IL-5 plus IFN-γ, summed over responding donors; for Cumulative Response: cumulative over regions ranked by total SFCs; for Donors Responding: number of allergic donors (34 tested) with T cell response to the region; for % Total Response: share of total Bla g specific response
Experimental: In vitro expansion of Bla g-specific T cells: PBMC were cultured in RPMI 1640 (V Scientific, Tarzana, Calif.) supplemented with 5% human serum (Cellgro, Herndon, Va.) at a density of 2×10^6 cells/ml in 24-well plates (BD Biosciences, San Jose, Calif.) and stimulated with 25 μg/ml German Cockroach (Blatella germanica; Bla g) extract (Greer, Lenoir, N.C.), or individual peptides. […] On day 14, cells were harvested and screened for reactivity against Bla g-specific peptide pools or individual peptides. ELISPOT assays: The production of IL-5, IFN-γ, and IL-10 was analyzed in ELISPOT assays. […] Cells were then incubated at a density of 1×10^5/well either with peptide pools or individual peptides (10 μg/ml), German Cockroach extract (25 μg/ml), PHA (10 μg/ml), or medium (containing 1% DMSO corresponding to the percentage of DMSO in the pools/peptides) as a control. […] Louis, Mo.). Spots were counted by computer-assisted image analysis (Zeiss, KS-ELISPOT reader, Munich, Germany). Each assay was performed in triplicate. The level of statistical significance was determined with a Student's t-test using the mean of triplicate values of the response against relevant pools or individual peptides versus the response against the DMSO control.

[1] = 6 months after initiation of SIT

| Sequence | IFNγ | IL-5 | Total SFCs | Cumulative Response | Donors Responding | % Total Response | POST-SIT IFNg [1] | POST-SIT IL-5 [1] | POST-SIT IL-10 [1] | PRE-SIT IL-5 (before SIT) | PRE-SIT IL-10 (before SIT) | PRE-SIT IFNg (before SIT, one line per donor/peptide) | T cell response pattern (IL-5 / IFN-γ), in words |
| --- | --- | --- | --- | --- | --- | --- | --- | --- | --- | --- | --- | --- | --- |
| LRKAFDAFDREKSGS (listed as Blattella germanica) | 90 SFC | 327 SFC |  |  |  |  |  |  |  |  |  |  |  |
| EAMEKELREAFRLYD (listed as Blattella germanica) [Region 21, Bla g 6 position 86] | 0 SFC | 53 SFC | 53 SFCs | 99.8% | 1 | 0.2% |  |  |  |  |  |  |  |
| FETIVVTVDSLPEFK (listed as Blattella germanica) [Region 1, Bla g 1 position 351] | 167 SFC | 0 SFC | 167 SFCs | 98.5% | 1 | 0.7% |  |  |  |  |  |  |  |
| GYITTNVLREILKEL (listed as Blattella germanica) [Region 25] | 0 SFC | 50 SFC | 50 SFCs | 100.0% | 1 | 0.2% | 0 SFC/10^6 | 0 SFC/10^6 | 0 SFC/10^6 | 50 SFC/10^6 | 0 SFC/10^6 | 0 SFC/10^6 |  |
| EQISVLRKAFDAFDR (listed as Blattella germanica) | 0 SFC | 340 SFC |  |  |  |  |  |  |  |  |  |  |  |
| GNQNFLTVFDSTSCN (listed as Blattella germanica) [Region 7, Bla g 2 position 46] | 55 SFC | 0 SFC | 55 SFCs | 99.6% | 1 | 0.2% |  |  |  |  |  |  | only associated with IFN-γ production |
| SGTVDFDEFMEMMTG (listed as Blattella germanica) [Region 22, Bla g 6 position 140] | 0 SFC | 57 SFC | 57 SFCs | 99.4% | 1 | 0.2% |  |  |  |  |  |  |  |
| IVQTLNAMPEYQNLL (listed as Blattella germanica) | 153 SFC | 87 SFC |  |  |  |  |  |  |  |  |  |  |  |
| PLYKLVHVFINTQYA (listed as Blattella germanica) [Region 6, Bla g 2 position 26] | 240 SFC | 0 SFC | 240 SFCs | 97.8% | 1 | 1.0% |  |  |  |  |  |  |  |
| MVGTILEMLGTRLDQ (listed as Blattella germanica) | 0 SFC | 267 SFC |  |  |  |  |  |  |  |  |  |  |  |
| PEQIQLLKKAFDAFD (listed as Blattella germanica) [Region 23, Bla g 6 position 6] | 0 SFC | 1172 SFC and 73 SFC | 1245 SFCs | 66.6% | 2 | 5.1% |  |  |  |  |  |  | only IL-5 production |
| HMAKEDLVANQPNLK (listed as Blattella germanica) | 610 SFC | 273 SFC |  |  |  |  |  |  |  |  |  |  |  |
